Measurements: publication PMC9541495, “Understanding the interaction of 14‐3‐3 proteins with hDMX and hDM2: a structural and biophysical study” (The Febs Journal, 2022)
Where a SMILES comes first, the peptide text is derived from it. [ ]: non-standard residue; d: D form. pS = N[C@@H](COP(=O)(O)O)C(=O)O

Experiments:
14‐3‐3η [1] = target: T1, 14‐3‐3η (Homo sapiens, UniProt Q04917); test: Isothermal titration calorimetry, peptide into 14‐3‐3η; assay type: binding; settings: 25 °C, HEPES pH 7.5
T1 construct: full‐length proteins were concentrated by centrifugation, rebuffered in HEPES buffer; made in house; host or cells: E. coli BL21(DE3)
T1 sequence (Q04917 1-246): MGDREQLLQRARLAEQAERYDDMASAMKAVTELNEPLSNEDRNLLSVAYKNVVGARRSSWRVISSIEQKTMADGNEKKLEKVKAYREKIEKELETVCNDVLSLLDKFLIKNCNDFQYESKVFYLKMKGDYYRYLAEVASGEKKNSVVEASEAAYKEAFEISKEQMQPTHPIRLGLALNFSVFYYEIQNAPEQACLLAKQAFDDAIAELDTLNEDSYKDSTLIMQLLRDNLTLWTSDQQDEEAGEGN
Description: (§1) […]
Moreover, such experiments provide thermodynamic data and as a label‐free method require no immobilization/functionalization of any of the binding partners. Here data were obtained by titration of the peptide into 14‐3‐3η protein (Fig. 2D,E and Fig. S7).
Isothermal titration calorimetry experiments were carried out on a MicroCal iTC200 in HBS buffer at 25°C (25 mM HEPES pH 7.5, 100 mM NaCl, 10 mM MgCl2, 0.5 mM TCEP). Peptides ([…]) in the syringe were titrated into a cell containing 14‐3‐3η ([…]). Data were fitted using MICROCAL software (Northampton, MA, USA) to give binding constant (K d), enthalpy (ΔH), entropy (ΔS) and binding stoichiometry (n).

14‐3‐3η [2] = target: T1, 14‐3‐3η; test: Fluorescence anisotropy direct titration, 14‐3‐3η; assay type: binding
Description: All assays were performed in 384 well plates (each experiment was run in triplicates) and data were collected by Perkin Elmer EnVision 2013 plate reader with excitation at 480 nm (30 nm bandwidth), polarised dichroic mirror at 505 nm and emission at 535 nm (40 nm bandwidth, S and P polarised). Experiments were carried out in HBS buffer (10 mM HEPES, 150 mM NaCl, pH 7.4) + 0.1% Tween 20 + 0.1% BSA). A ½ fold dilution series was performed in the titration, with plates read after 30 min, 4 h and 20–24 h. […] Collected data were processed in Microsoft Excel using the equations below. Total intensity I and anisotropy r were calculated using Equations 1 and 2 for each well. Average anisotropy was plotted against protein concentration using OriginPro and a logistic curve was fitted to give r min and r max. Using Equation 3 anisotropy was converted into fraction bound and multiplied by peptide concentration to be fitted in Origin using Equation 5 to obtain K d values.

14‐3‐3η [3] = target: T1, 14‐3‐3η; test: Surface plasmon resonance on immobilized 14‐3‐3η; assay type: binding; settings: multicycle kinetic format, Langmuir model, 25 °C
Description: as §1
Experiments were performed at 25 °C using a Biacore T200 instrument (GE Healthcare, Buckinghamshire, UK). For immobilization, the running buffer was HBS buffer (HEPES, NaCl, Tween‐20, pH 7.4). 14‐3‐3η was immobilized on an NTA sensor chip (Series S Sensor Chip GE Healthcare) using NTA reagent and Biacore Amine Coupling Kit. Briefly, 14‐3‐3η was diluted to 0.2 mg·mL^−1 and 200 µL was injected over a chip surface that had been activated with an injection of Ni^2+, followed by 140 µL of 1 : 1 NHS/EDC. A 30 µL of 0.5 M ethanolamine was then injected to cap the excess free amine groups. […] Then, 20 µL of these solutions were injected over a 14‐3‐3η immobilized surface for 1 min at the […] flow rate, followed by a 4 min regeneration period with HBS buffer. Kinetics and the binding affinity were calculated using the BIACORE evaluation software (Buckinghamshire, UK). Standard dose–response curves were fitted by plotting RUs against the peptide concentration.

14‐3‐3η [4] = target: T1, 14‐3‐3η; test: Analytical ultracentrifugation (sedimentation velocity) of 14‐3‐3η with peptide; settings: AUC‐SV; 14 μM 14‐3‐3η, protein : peptide 1 : 1 and 1 : 0.5; 10 mM HEPES, 150 mM NaCl, pH 7.4; 25 °C
From the text: The 1 : 1 stoichiometry between the doubly phosphorylated peptides and 14‐3‐3 contrasts with previously reported work, although it may be that the length and/or accessible conformation of the hDMX and hDM2 peptides are incompatible with the simultaneous engagement of both 14‐3‐3 protomers in the dimeric structure. To further explore this behaviour and understand the basis of cooperativity and affinity enhancement we performed additional experiments. To exclude the possible formation of higher‐order oligomers (e.g. 14‐3‐3 tetramers held together by two peptides bridging two dimers), an analytical ultracentrifugation experiment was performed. The 14‐3‐3η (at the concentration of 14 μM, approximately corresponding to the second binding events observed in FA, Fig. 2C) and hDMX335‐373 ^pSer342/pSer367 peptide in two different concentration ratios (1 : 1 and 1 : 0.5, protein vs. peptide) were analysed. […] The second binding event observed only in fluorescence anisotropy experiments, may represent a further non‐specific binding event or an interaction linked to 14‐3‐3 dimerization and will be investigated in future work.
AUC‐SV experiments were performed using a Beckman Coulter Optima XL‐I ultracentrifuge. […] The diffusion‐deconvoluted sedimentation coefficient distributions c(s) were calculated using the SEDFIT program (Bethesda, MD, USA). […]

all isoforms of 14‐3‐3 = test: Fluorescence anisotropy assays with all isoforms of 14‐3‐3 (result in words); assay type: binding, human; settings: FAM tracer peptide 50 nM, 0.1 nM - 300 µM protein, 10 mM HEPES, 150 mM NaCl, 0.1% Tween 20, 0.1% BSA pH 7.4; n = 3
From the text: 14‐3‐3 proteins were titrated against a constant concentration of the tracer resulting in an increase of anisotropy upon engaging 14‐3‐3 proteins (Fig. 2A–C for 14‐3‐3 binding hDMX sequences and Figs S4–S6, for 14‐3‐3 binding hDM2 sequences, non‐binding sequence, and unphosphorylated controls). A noteworthy feature of the data is that different maximum anisotropy levels were observed between hDMX or hDM2 peptides and 14‐3‐3 isoforms, indicating different diffusion properties of the fluorophore when bound to the different 14‐3‐3 isoforms. […]
All assays were performed in 384 well plates (each experiment was run in triplicates) and data were collected by Perkin Elmer EnVision […] plate reader with excitation at 480 nm (30 nm bandwidth), polarised dichroic mirror at 505 nm and emission at 535 nm (40 nm bandwidth, S and P polarised). […] A ½ fold dilution series was performed in the titration, with plates read after 30 min, 4 h and 20–24 h. […] Total intensity I and anisotropy r were calculated using Equations 1 and 2 for each well. […]
Figure S4. Fluorescence anisotropy assays for the hDM2 peptides. […]
Figure S5. Fluorescence anisotropy assays for the hDMX144-158pThr151 peptide with all isoforms of 14-3-3. […]

Compound | ∆G (ITC), 14‐3‐3η (14‐3‐3η [1]; acetyl labelled peptides) | n (binding stoichiometry, ITC) (14‐3‐3η [1]; acetyl peptides, 14‐3‐3η) | ‐T∆S (ITC) (14‐3‐3η [1]; acetyl peptides, 14‐3‐3η) | ∆H (ITC) (14‐3‐3η [1]; acetyl peptides, 14‐3‐3η) | fold higher affinity Kd1 of doubly phosphorylated peptide compared to singly phosphorylated peptide (14‐3‐3η [2]; FA, 14‐3‐3η, compared to hDM2_160‐171 ^pSer166 (hDM2 peptide) or hDMX361‐374 ^pSer367 (hDMX peptide)) | koff (14‐3‐3η [3]) | kon (14‐3‐3η [3]) | sedimentation coefficient of 14‐3‐3η with peptide vs protein alone (in words) (14‐3‐3η [4]) | Kd (14‐3‐3η [2]; FA direct titration, FAM‐Ahx tracer peptide 50 nM, pH 7.4, 1:1 fit, n = 3, read-out: K d, 14‐3‐3η) | FA response / affinity with 14‐3‐3 proteins, all isoforms (in words) (all isoforms of 14‐3‐3)
CC[C@H](C)[C@H](NC(=O)[C@H](CC(=O)O)NC(=O)[C@H](CO)NC(=O)[C@@H](NC(=O)[C@H](COP(=O)(O)O)NC(=O)[C@H](CC(C)C)NC(=O)[C@H](CO)NC(=O)[C@H](Cc1c[nH]cn1)NC(=O)[C@@H](NC(=O)[C@H](CC(C)C)NC(=O)[C@H](CCCCN)NC(=O)[C@H](CO)NC(C)=O)[C@@H](C)O)[C@@H](C)O)C(=O)N[C@H](C(=O)N[C@@H](C)C(=O)N[C@H](C(=O)N1CCC[C@H]1C(=O)N[C@@H](CCC(=O)O)C(=O)N[C@@H](CCCCN)C(=O)N[C@@H](CCC(=O)O)C(=O)N[C@@H](CC(N)=O)C(=O)N[C@@H](CCC(=O)O)C(=O)NCC(=O)N[C@@H](CC(N)=O)C(=O)N[C@@H](CC(=O)O)C(=O)N[C@H](C(=O)N1CCC[C@H]1C(=O)N[C@@H](CC(=O)O)C(=O)N[C@@H](CS)C(=O)N[C@@H](CCCNC(=N)N)C(=O)N[C@@H](CCCNC(=N)N)C(=O)N[C@H](C(=O)N[C@H](C(=O)N[C@@H](COP(=O)(O)O)C(=O)N[C@@H](C)C(=O)N1CCC[C@H]1C(=O)N[C@H](C(=O)N[C@H](C(=O)N[C@@H](CCCNC(=N)N)C(=O)N1CCC[C@H]1C(N)=O)C(C)C)C(C)C)[C@@H](C)CC)[C@@H](C)O)C(C)C)[C@@H](C)CC)[C@@H](C)O [hDMX335‐373 ^pSer342/pSer367] | -10.7 kcal/mol | 0.94 | -5.4 kcal/mol | -5.28 ± 0.17 kcal/mol | 3 fold | 0.0048 s⁻¹ | 1.51e+06 M⁻¹ s⁻¹ | remained unchanged | – | –
CC[C@H](C)[C@H](NC(=O)[C@@H](NC(=O)[C@H](CCCNC(=N)N)NC(=O)[C@H](CCCNC(=N)N)NC(=O)[C@H](CS)NC(=O)[C@H](CC(=O)O)NC(C)=O)[C@@H](C)O)C(=O)N[C@@H](COP(=O)(O)O)C(=O)N[C@@H](C)C(=O)N1CCC[C@H]1C(=O)N[C@H](C(=O)N[C@H](C(=O)N[C@@H](CCCNC(=N)N)C(=O)N1CCC[C@H]1C(=O)N[C@@H](CCCCN)C(N)=O)C(C)C)C(C)C [hDMX361‐374 ^pSer367] (Ac-DCRRTI[pS]APVVRPK-NH2) | – | – | – | – | – | 0.121 s⁻¹ | 389000 M⁻¹ s⁻¹ | – | 98.8 ± 4.6 nM | –
X‐STSRKRT pT EDDIPTL‐NH2 [hDMX144‐158 ^pThr151, hDMX‐derived phosphopeptide, N‐terminal acetyl (ITC, SPR, crystallography) or FAM‐Ahx (FA tracer), C‐terminal amide] | – | – | – | – | – | – | – | – | – | no response
